The source of these data is paper PMC12588083, “Validated antimalarial drug target discovery using genome-scale metabolic modeling” (Antimicrobial Agents and Chemotherapy, 2025).

What is called IC50 is the midpoint of a concentration-inhibition curve. Higher therefore signals weaker potency in that assay. As a reminder, the Ki is the dissociation constant of the complex between target and ligand, obtained from inhibition or displacement. The term Km denotes the substrate concentration at which the rate is half of its maximum.

One data set concerns P. falciparum 3D7. Briefly: Antiplasmodial activity (IC50), SYBR Green fluorescence, 48 hours. In kind it is cell-based, Plasmodium falciparum. Here is the method: P. falciparum 3D7 parasites underwent two synchronization cycles with D-sorbitol initiating the inhibitor testing. Parasitemia and hematocrit were adjusted to 0.5% and 3%, respectively. Synchronized ring parasites were cultured in 96-well plates in complete RPMI medium with varying inhibitor concentrations. Inhibitor stock solutions, mostly at 100 mM, were prepared in DMSO. […] Triplicate wells were prepared for each compound. Negative controls included wells with uninfected red cells (3% hematocrit) in complete RPMI medium.
Culture plates were incubated in a chamber with controlled gas conditions at 37°C. After 48 hours, parasites were quantified using a fluorescence-based assay with SYBR Green dye as previously described ([51]). Lysis buffer containing SYBR Green was added to each well, and plates were incubated at room temperature for 45 minutes and protected from the light. Fluorescence was measured using a microplate reader (POLARstar OPTIMA, BMG Labtech) with excitation at 485 nm and detection at 520 nm. Background fluorescence of uninfected red cells was subtracted, and dose-response curves were plotted against inhibitor concentration. IC50 values were determined using nonlinear regression curve fitting in GraphPad Prism software.

In data set [1] the target is T1, recombinant human UMP-CMP kinase (hUCK) (Homo sapiens, UniProt P30085).
T1 construct: constructed by amplifying its ORF from an available commercial plasmid; His tag (vector-encoded by pET28a; the text names only the HisPur Ni-NTA and His GraviTrap TALON columns) (N); host or cells: E. coli BL21 (DE3) with extra argU, ileY and leuW tRNA genes
T1 sequence (P30085 1-228 isoform P30085-3): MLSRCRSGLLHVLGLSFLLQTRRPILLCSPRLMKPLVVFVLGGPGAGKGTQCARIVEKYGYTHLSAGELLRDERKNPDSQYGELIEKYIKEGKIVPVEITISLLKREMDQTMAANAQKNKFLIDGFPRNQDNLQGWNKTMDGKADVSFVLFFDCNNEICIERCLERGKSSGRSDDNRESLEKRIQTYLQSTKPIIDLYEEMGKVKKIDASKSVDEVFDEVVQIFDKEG
As to the kind of experiment: Inhibition constant (Ki) determination, coupled PK/LDH NADH assay, hUCK. In kind it is biochemical. The note with it: for Ki—hUCK: 1 mM CMP, competitive equation. Here is the method: The protein was purified with a HisPur Ni-NTA Spin column, and elution was performed with 250 mM imidazole in elution buffer (50 mM Tris-HCl, 750 mM NaCl, and 10% glycerol; pH 7.5). The protein was further purified using a His GraviTrap TALON column (Cytiva, catalog number 29-0005-94). The buffers employed were binding buffer (50 mM potassium phosphate [KP], 100 mM NaCl, and 10% glycerol; pH 8.0), washing buffer (50 mM KP, 500 mM NaCl, 10 mM imidazole, and 10% glycerol; pH 8.0), and elution buffer (50 mM Tris-HCl, 750 mM NaCl, 250 mM imidazole, and 10% glycerol; pH 7.5). The purified protein was desalted using a PD-10 column (Sephadex G25 M; Cytiva, catalog number 17085101) stored in a storage buffer (25 mM Tris-HCl, 50 mM KCl, and 20% glycerol; pH 7.0). Purity of the recombinant protein was verified via SDS-PAGE (Mini-Protein TGX Precast Gels; Bio-Rad), and its concentration was determined using a Bradford protein assay (Bio-Rad, catalog number 5000006).
(§1) The final concentration of dimethyl sulfoxide (Merck, Catalog number 472301) in the assay reaction was maintained at 1%.

Data set [2] deals with recombinant PfUCK (P. falciparum UMP-CMP kinase, PfUCK-Δ23) (Plasmodium falciparum, UniProt Q8I231). As to the kind of experiment: Inhibition constant (Ki) determination, coupled PK/LDH NADH assay, recombinant PfUCK. The format is biochemical. How it is done:
(§2) The hydrophobic core at the protein’s N-terminus may cause poor expression and low solubility in E. coli. Therefore, a truncated gene was created where the ORF began at amino acid residues 24–371, encoding a 348 amino acid protein. […] Briefly, protein expression was induced with isopropyl-D-thiogalactoside, incubated at 16°C with shaking at 200 RPM for 20 hours, and the cell pellet resuspended in binding buffer (50 mM Tris [pH 7.6], 300 mM NaCl, 20 mM imidazole, 5% glycerol, and 0.075% β-mercaptoethanol), with cell disruption using an Avestin C3 Cell Disrupter. Cell debris was removed, and the UCK was purified by Ni-NTA affinity purification. The protein was eluted from the column using a linear gradient of imidazole ([…]) in elution buffer (50 mM Tris [pH 7.6], 300 mM NaCl, 5% glycerol, and 0.075% β-mercaptoethanol). […] The concentrated protein was then stored at −70°C in a storage buffer (25 mM Tris-HCl, 50 mM KCl, and 20% glycerol; pH 7.0).
as §1

Data set [3] deals with recombinant PfUCK (P. falciparum UMP-CMP kinase, PfUCK-Δ23). The description is as above. The format is biochemical, Plasmodium falciparum. The note with it: hUCK versus PfUCK. Here is the method:
as §2, §1

A further data set addresses T2, PfUCK (Plasmodium falciparum, UniProt Q8I231).
T2 sequence (Q8I231 24-371): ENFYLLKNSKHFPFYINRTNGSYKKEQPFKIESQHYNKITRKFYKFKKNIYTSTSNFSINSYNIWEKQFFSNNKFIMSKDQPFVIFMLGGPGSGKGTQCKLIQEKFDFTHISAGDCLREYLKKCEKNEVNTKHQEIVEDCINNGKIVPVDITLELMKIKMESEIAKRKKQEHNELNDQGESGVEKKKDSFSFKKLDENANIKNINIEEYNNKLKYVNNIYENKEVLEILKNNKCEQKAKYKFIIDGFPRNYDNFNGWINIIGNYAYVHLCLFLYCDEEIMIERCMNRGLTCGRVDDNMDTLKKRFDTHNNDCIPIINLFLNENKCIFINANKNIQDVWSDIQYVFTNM
Briefly: UCK characterization: Km for nucleoside monophosphate substrates, PfUCK. Particulars: UMP versus CMP. In kind it is biochemical.

Data set [4] addresses T3, hUCK (Homo sapiens, UniProt P30085). The note with it: read-out: Km hUCK; phosphate acceptor; literature values ref 66; cited from earlier work.
Data set [5] addresses T3, hUCK. Particulars: hUCK versus PfUCK.
Substrate in data set [6]: O=c1ccn([C@@H]2O[C@H](COP(=O)(O)O)[C@@H](O)[C@H]2O)c(=O)[nH]1
Briefly: UCK characterization: Km for nucleoside monophosphate substrates, PfUCK. Particulars: other: phosphate acceptor, ATP as phosphate donor, 25°C, pH 7.6. In kind it is biochemical, Plasmodium falciparum.

Substrate in data set [7]: Nc1ccn([C@H]2C[C@H](O)[C@@H](COP(=O)(O)O)O2)c(=O)n1
The data set is described as above. In kind it is biochemical, Plasmodium falciparum. The note with it: other: phosphate acceptor, ATP as phosphate donor, 25°C, pH 7.6.

Substrate in data set [8]: O=c1ccn([C@@H]2O[C@H](COP(=O)(O)O)[C@@H](O)[C@H]2O)c(=O)[nH]1
As to the kind of experiment: purified protein, by the assay type. The note with it: other: phosphate acceptor, ATP as phosphate donor, 25°C, pH 7.6.

The mark [9] stands for this setting: Plasmodium falciparum, 3D7, 48 h, Supplementary Table 7, benzoylacetonitrile derivatives.
[10] abbreviates: Supplementary Table 7, benzoylacetonitrile derivatives.
The mark [11] stands for this setting: Table 4, benzoylacetonitrile derivatives.
Where [12] appears, read: Plasmodium falciparum, 3D7, 48 h, Table 5.
The mark [13] stands for this setting: Table 3, acrylamide and chloroacetamide compounds.

“Also recorded” adds a separate entry of the source.

With `N#CCC(=O)c1cccc(Cl)c1` [Compound C7], the concentration for half-maximal inhibition (IC50) was more than 310 µM with P. falciparum 3D7 (setting [9]) and 380 ± 50.1 µM with P. falciparum 3D7 (setting [10]). Besides, the “Ki—hUCK” value in [1] (setting [11]) is given as “little or no inhibition of hUCK; also recorded: No inhibition at 1 mM”. The Ki in data set [2] was 4.26 ± 0.55 µM. In data set [3] (Table 4), the Selectivity index is recorded as more than 235.

Take `N#CCC(=O)c1ccc(Cl)c(Cl)c1` [Compound C12]: in the data set with P. falciparum 3D7 (setting [10]), the “IC50 - P. falciparum (3D7), µM” value was “no inhibition at 0.5 mM”. The “Ki—hUCK” value in [1] (setting [11]) is on record as “No inhibition at 1 mM”. Further, the inhibitory constant (Ki) in data set [2] amounted to 11.3 ± 2.22 µM. In addition, the Selectivity index in data set [3] (Table 4) is reported as more than 89.

With `O=C(CCl)NCc1cc(=O)n2ccccc2n1` [Compound C21], half-maximal inhibition with P. falciparum 3D7 (setting [12]) (IC50) was put at 15.6 ± 1.13 µM. Also, the results for the Ki in data set [1] and in [2] were 2.98 ± 0.5 µM and 13.7 ± 3.18 µM, respectively. Moreover, the “Ki—hUCK” value in data set [1] (setting [13]) was “inhibited hUCK activity”. Moreover, in [3] (Table 3), the Selectivity index stood at 0.22.

On to `N#CCC(=O)c1cccc(F)c1` [Compound C38], for which the half-inhibitory concentration (IC50) in the data set on P. falciparum 3D7 (setting [9]) was more than 310 µM; in the data set with P. falciparum 3D7 (setting [10]), 339 ± 26.4 µM. Moreover, in data set [1] (setting [11]), the “Ki—hUCK” value is “little or no inhibition of hUCK; also recorded: No inhibition at 0.5 mM”. The Ki in data set [2] came out at 1.66 ± 0.27 µM.

Regarding `N#CCC(=O)c1ccccc1Cl` [Compound C39], the “IC50 - P. falciparum (3D7), µM” value in the data set on P. falciparum 3D7 (setting [10]) was “no inhibition at 1 mM”. In addition, the “Ki—hUCK” value in data set [1] (setting [11]) is recorded as “little or no inhibition of hUCK; also recorded: No inhibition at 1 mM”. For the same molecule, the inhibitory constant (Ki) in data set [2] came out at 3.64 ± 0.59 µM. Also, the Selectivity index in [3] (Table 4) is on record as more than 275.

As for `C=CC(=O)NCc1cc(=O)n2ccccc2n1` [Compound C43], in the data set on P. falciparum 3D7 (setting [12]), the IC50 is more than 1000 µM. Also, the inhibition constant (Ki) was 4.55 ± 0.52 µM in data set [1] and 4.15 ± 0.26 µM in [2]. Also, the “Ki—hUCK” value in [1] (setting [13]) is “inhibited hUCK activity”. For the same molecule, in data set [3] (Table 3), the Selectivity index is 1.09.

For the molecule `O=c1ccn([C@@H]2O[C@H](COP(=O)(O)O)[C@@H](O)[C@H]2O)c(=O)[nH]1` [UMP], the “fold higher Km than CMP, PfUCK” value on PfUCK was determined as 3.9 fold. Also, the Km at hUCK [4] was 45 ± 10 µM. For the same molecule, at hUCK [5], the “hUCK Km fold greater than PfUCK” value worked out at 2.3 fold.

On to `Nc1ccn([C@H]2C[C@H](O)[C@@H](COP(=O)(O)O)O2)c(=O)n1` [dCMP], for which the Michaelis constant (Km) at hUCK [4] is 900 ± 100 µM.

Regarding CMP, on hUCK [4], the Michaelis-Menten constant (Km) is 20 ± 5 µM.

B1: PfUCK (Plasmodium falciparum 3D7) (protein)
chain: ENFYLLKNSKHFPFYINRTNGSYKKEQPFKIESQHYNKITRKFYKFKKNIYTSTSNFSINSYNIWEKQFFSNNKFIMSKDQPFVIFMLGGPGSGKGTQCKLIQEKFDFTHISAGDCLREYLKKCEKNEVNTKHQEIVEDCINNGKIVPVDITLELMKIKMESEIAKRKKQEHNELNDQGESGVEKKKDSFSFKKLDENANIKNINIEEYNNKLKYVNNIYENKEVLEILKNNKCEQKAKYKFIIDGFPRNYDNFNGWINIIGNYAYVHLCLFLYCDEEIMIERCMNRGLTCGRVDDNMDTLKKRFDTHNNDCIPIINLFLNENKCIFINANKNIQDVWSDIQYVFTNM
On to B1, for which the Km in data set [6] was 110 ± 14 µM; in data set [7], 428 ± 11 µM.

B2: hUCK (Homo sapiens) (protein)
chain: MLSRCRSGLLHVLGLSFLLQTRRPILLCSPRLMKPLVVFVLGGPGAGKGTQCARIVEKYGYTHLSAGELLRDERKNPDSQYGELIEKYIKEGKIVPVEITISLLKREMDQTMAANAQKNKFLIDGFPRNQDNLQGWNKTMDGKADVSFVLFFDCNNEICIERCLERGKSSGRSDDNRESLEKRIQTYLQSTKPIIDLYEEMGKVKKIDASKSVDEVFDEVVQIFDKEG
For the molecule B2, the Michaelis constant (Km) in data set [8] was determined as 47.7 ± 3.2 µM.
